In US20050043341A1, “3-'Hydroxy-(-4-trifluoromethylphenyl)-methyl-7-spirocyclobutyl-5,6,7 8-tetrahydroquinolin-5-ol derivatives and the use of the same as cholesterol ester transfer protein (cetp) inhibitors” (priority 2001, published 2005):

Experiments:
Syrian golden hamsters = assay: In vivo activity in Syrian golden hamsters (HDL cholesterol); conditions: perorally
Protocol: In experiments for the determination of the oral action on lipoproteins and triglycerides, test substance dissolved in DMSO and 0.5% suspended in Tylose are administered perorally by means of a stomach tube to Syrian golden hamsters bred in-house. For the determination of the CETP activity, before the start of the experiment blood is taken by retro-orbital puncture (about 250 μl). The test substances are then administered perorally by means of a stomach tube. The control animals receive identical volumes of solvent without test substance. The feed is then withdrawn from the animals and blood is taken at various times—up to 24 hours after substance administration—by puncture of the retroorbital venous plexus.
Clotting is terminated by incubation at 4° C. overnight, then centrifugation is carried out for 10 minutes at 6000×g. The content of cholesterol and triglycerides in the serum thus obtained is determined with the aid of modified commercially obtainable enzymatic tests (Ecoline 25 Cholesterol 1.14830.0001 Merck Diagnostica, Ecoline 25 Triglycerides 1.14856.0001 Merck Diagnostica). Serum is suitably diluted using physiological saline solution.
10 μl of serum dilution are treated with 200 μl of Ecoline 25 reagent in 96-hole plates and incubated for 10 minutes at room temperature. The optical density is then determined at a wavelength of 490 nm using an automatic plate reader. The triglyceride or cholesterol concentration contained in the samples is determined with the aid of a standard curve measured in parallel.
The determination of the content of HDL cholesterol is carried out after precipitation of the ApoB-containing lipoproteins (Sigma 352-4 HDL cholesterol reagent) according to the manufacturer's instructions.

transgenic hCETP mice = assay: In vivo activity in transgenic hCETP mice (HDL); conditions: stomach tube
Protocol: In experiments for the determination of the oral action on lipoproteins and triglycerides, test substance is administered to transgenic mice using a stomach tube (Dinchuck, Hart, Gonzalez, Karmann, Schmidt, Wirak; BBA (1995), 1295, 301). Before the start of the experiment, blood is taken from the mice retroorbitally in order to determine cholesterol and triglycerides in the serum. The serum is obtained as described above for hamsters by incubation at 4° C. overnight and subsequent centrifugation at 6000×g. […] The change in the parameters measured is expressed as the percentage change compared with the starting value.

CETP = biological target: T1, CETP (Homo sapiens, UniProt P11597); assay: CETP-SPA test; type: biochemical; conditions: 3H-cholesterol ester transfer from HDL to biotin-LDL, 37° C., 18 h
T1 construct: CETP is obtained in partially purified form from human plasma; from tissue; host or cells: human plasma
T1 sequence (P11597 18-493): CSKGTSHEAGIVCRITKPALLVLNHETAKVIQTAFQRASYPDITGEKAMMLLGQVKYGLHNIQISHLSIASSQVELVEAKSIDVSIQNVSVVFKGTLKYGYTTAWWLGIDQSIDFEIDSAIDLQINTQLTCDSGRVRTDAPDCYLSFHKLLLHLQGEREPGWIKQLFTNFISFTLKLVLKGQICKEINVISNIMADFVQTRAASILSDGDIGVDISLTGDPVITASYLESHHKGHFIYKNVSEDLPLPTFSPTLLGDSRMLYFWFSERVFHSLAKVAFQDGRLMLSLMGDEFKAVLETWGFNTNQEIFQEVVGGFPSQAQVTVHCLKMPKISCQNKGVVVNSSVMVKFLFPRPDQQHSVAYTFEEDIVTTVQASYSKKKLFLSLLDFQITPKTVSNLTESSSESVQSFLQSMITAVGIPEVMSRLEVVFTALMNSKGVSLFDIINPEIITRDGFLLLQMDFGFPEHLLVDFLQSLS
Protocol: CETP is obtained in partially purified form from human plasma by differential centrifugation and column chromatography and used for the test. To this end, human plasma is adjusted to a density of 1.21 g per ml using NaBr and centrifuged at 4° C. at 50000 rpm for 18 h. The bottom fraction (d>1.21 g/ml) is applied to a Sephadex® Phenyl-Sepharose 4B (Pharmacia) column, washed with 0.15 M NaCl/0.001 M tris HCl pH 7.4 and then eluted with dist. water. Die CETP-active fractions are pooled, dialysed against 50 mM Na acetate pH 4.5 and applied to a CM-Sepharose® (Pharmacia) column. The mixture is then eluted using a linear gradient (0-1 M NaCl). The pooled CETP fractions are dialysed against 10 mM TrisHCl pH 7.4 and then further purified by chromatography on a Mono Q® column (Pharmacia).
50 ml of fresh human EDTA plasma are adjusted to a density of 1.12 using NaBr and centrifuged at 4° C. in a Ty 65 rotor at 50000 rpm for 18 h. The upper phase is used for the obtainment of cold LDL. The lower phase is dialysed against 3×41 of PDB buffer (10 mM tris/HCl pH 7.4, […], 1 mM EDTA, 0.02% NaN3). Per 10 ml of retentate volume, 20 μl of 3H-cholesterol (Dupont NET-725; 1 μC/μl dissolved in ethanol!) is then added and the mixture is incubated at 37° C. under N2 for 72 h.
The batch is then adjusted to the density 1.21 using NaBr and centrifuged at 20° C. in a Ty 65 rotor at 50000 rpm for 18 h. The upper phase is recovered and the lipoprotein fractions are purified by gradient centrifugation. To this end, the isolated, labelled lipoprotein fraction is adjusted to a density of 1.26 using NaBr. 4 ml each of this solution are covered in centrifuged tubes (SW 40 rotor) with a layer of 4 ml of a solution of density 1.21 and 4.5 ml of a solution of 1.063 (density solutions of PDB buffer and NaBr) and then centrifuged for 24 h at 38000 rpm and 20° C. in the SW 40 rotor. The intermediate layer lying between the density 1.063 and 1.21, containing the labelled HDL, is dialysed against 3×100 volumes of PDB buffer at 4° C.
The retentate contains radiolabelled ^3H-CE-HDL, which, adjusted to about 5×10^6 cmp per ml, is used for the test.
For testing of the CETP activity, the transfer of ^3H-cholesterol ester from human HD lipoproteins to biotinylated LD lipoproteins is measured.
The reaction is ended by addition of streptavidin-SPA®beads (Amersham) and the transferred radioactivity is determined directly in a liquid scintillation counter.
In the test batch, 10 μl of HDL-^3H-cholesterol ester (˜50000 cpm) are incubated at 37° C. for 18 h with 10 μl of biotin-LDL (Amersham) in 50 mM Hepes/0.15 M NaCl/0.1% bovine serum albumin/0.05% NaN3 pH 7.4 containing 10 μl of CETP (1 mg/ml) and 3 μl of solution of the substance to be tested (dissolved in 10% DMSO/1% RSA). 200 μl of the SPA-streptavidin bead solution (TRKQ 7005) are then added, incubated further with shaking for 1 h and then measured in a scintillation counter.
Corresponding incubations with 10 μl of buffer, 10 μl of CETP at 4° C. and 10 μl of CETP at 37° C. serve as controls.
The activity transferred in the control batches with CETP at 37° C. is rated as 100% transfer. The substance concentration at which this transfer is reduced to half is specified as the IC50 value.

SMILES | % HDL increase after 24 h (Dose: 2 × 10 mg/kg) (Syrian golden hamsters) [%] | % HDL increase after 4 d (Dose: 4 × 10 mg/kg) (transgenic hCETP mice) [%] | IC50 (CETP) [nM]
CC(C)c1nc2c(c(-c3ccc(F)cc3)c1[C@@H](O)c1ccc(C(F)(F)F)cc1)[C@@H](O)CC1(CCC1)C2 [Example 51, (5S)-2-Isopropyl-4-(4-fluorophenyl)-3-[(S)-hydroxy-(4-trifluoromethylphenyl)-methyl]-7-spirocyclobutyl-5,6,7,8-tetrahydroquinolin-5-ol] | 17 | 57 | 15
CC(C)c1nc2c(c(-c3ccccc3)c1[C@@H](O)c1ccc(C(F)(F)F)cc1)[C@@H](O)CC1(CCC1)C2 [Example 53, (5S)-2-Isopropyl-4-phenyl-3-[(S)-hydroxy-(4-trifluoromethylphenyl)-methyl]-7-spirocyclobutyl-5,6,7,8-tetrahydroquinolin-5-ol] | 19 | – | 30
CC(C)c1nc2c(c(-c3cccs3)c1[C@@H](O)c1ccc(C(F)(F)F)cc1)[C@@H](O)CC1(CCC1)C2 [Example 61, (5S)-2-Isopropyl-4-(2-thienyl)-3-[(S)-hydroxy-(4-trifluoromethylphenyl)-methyl]-7-spirocyclobutyl-5,6,7,8-tetrahydroquinolin-5-ol] | – | – | 40
